In US5504104A, “Tricyclic pyrone derivatives as protease inhibitors and antiviral agents” (Warner-Lambert Company, priority 1993, dated 1996):

Test system: HIV
Test: not given
Conditions: cell-free and cell-mediated; literature; cited from earlier work
In the case of `CC(=O)CC(c1ccccc1)c1c(O)c2ccccc2oc1=O` (stereo not drawn) [Warfarin, 3-(α-acetonylbenzyl)-4-hydroxycoumarin], the “inhibiting HIV infection” value is given as “inhibiting cell-free and cell-mediated HIV infection”.

Target: T1, HIV-1 Protease (Human immunodeficiency virus type 1 group M subtype B, UniProt P04585)
T1 construct: HIV-1 Protease: The enzyme is obtained from Bachem Bioscience Inc; purchased Bachem Bioscience Inc
Test: HIV Protease Inhibition Assay (HPLC of undecapeptide substrate hydrolysis)
Assay type: biochemical
Conditions: 40 μM substrate, 37° C., 5 minutes, pH 4.7, 2% DMSO; read-out: 50% INHIBITION CONCENTRATION
Procedure: The biological activity of the subject compounds was determined in an HIV Protease Inhibition Assay.
DTT Buffer: 1.0 mM dithiothreitol (DTT) was prepared fresh daily in 0.1% polyethylene glycol (mw 8000) 80 mM NaOAc, 160 mM NaCl, 1.0 mM EDTA, and brought to pH 4.7 with HCl.
HIV-1 Protease: The enzyme is obtained from Bachem Bioscience Inc. The undiluted enzyme is thawed from -80° C. and diluted 50-fold with DTT buffer. The solution is always kept at 0° C. on ice water and used in the experiment within 20 minutes after thawing.
Ensyme Substrates: Substrate III from Bachem Bioscience Inc. is the undecapeptide H-His-Lys-Ala-Arg-Val-Leu-p-Nitrophenylalanine-Glu-Ala-Norleucine-Ser-NH2 (>97% purity). A 200 μM stock solution in DTT buffer is prepared and stored on ice. Substrate solution is prepared fresh daily.
Test Compound: 10 mM inhibitor (I) in dimethyl sulfoxide (DMSO) is diluted to 200 μM with DTT buffer. From the 200 μM stock solution is made a 10 μM stock solution with 2% DMSO in DTT buffer. The two inhibitor solutions are used to make final I!=100, 50, 20, 10, 5, 2, 1, 0.5 and 0 μM with 2% DMSO in DTT buffer in each reaction well (total inhibitor volume of 50 μl).
To each reaction well is added 20 μl of substrate (final concentration of 40 μM), 50 μl of inhibitor (at a concentration such that final dilution will produce the test concentration) and 20 μl of DTT buffer. The reaction plate (96 wells) is incubated at 37° C. for at least 5 minutes.
10 μl of the diluted protease is added to the reaction well while the reaction plate is shaking. Once shaken for 10 seconds, the plate is returned to the heating block at 37° C. (final reaction volume 100 μl.)
The reaction is incubated for 5 minutes at 37° C. The reaction is stopped by placing the reaction plate on the shaker and adding 20 μl of 10% trifluoroacetic acid (TFA) and shaking for 10 seconds. The amount of proteolysis is then determined by separation of noncleaved substrate and two cleaved products with reverse-phase HPLC, while measuring absorbance at 220 nm to determine the relative peak areas of the three components. The relative peak areas are used to calculate % conversion to product as a function of inhibitor concentration. The data is plotted as % Control (the ratio of % conversion is the presence and absence of inhibitor×100) versus inhibitor concentration and fit with the equation Y=100/1+(X/IC50)^A, where IC50 is the inhibitor concentration at 50% inhibition and A is the slope of the inhibition curve.
Work on `Cc1cc(C)c2c(c1)-c1oc(=O)c(SCc3ccccc3)c(O)c1CC2` [Example 6, 5,6-Dihydro-4-hydroxy-7,9-dimethyl-3-(phenylmethyl)thio!-2H-naphtho 1,2-b! pyran-2-one] yielded an IC50 of 2000 nM. `O=c1oc2c(c(O)c1SCc1ccccc1)CCc1ccccc1-2` [Example 4, 5,6-Dihydro-4-hydroxy-3-(phenylmethyl)thio!-2H-naphtho 1,2-b!pyran-2-one] showed an IC50 of 1400 nM. `O=c1oc2c(c(O)c1SCc1ccccc1)CCc1cc(O)ccc1-2` [Example 9, 5,6-Dihydro-4,8-dihydroxy-3-(phenylmethyl)thio! -2H-naphtho 1,2-b !pyran-2-one] gave an IC50 of 2500 nM. `O=c1oc2c(c(O)c1SCc1ccccc1)Cc1ccccc1-2` [Example 1, 4-Hydroxy-3-(phenylmethyl)thio!-indeno 1,2-b!pyran-2(5H)-one] gave an IC50 of 1300 nM. For `O=c1oc2c(c(O)c1SCc1ccccc1)Cc1ccc(O)cc1-2` [Example 3, 4,8-Dihydroxy-3-(phenylmethyl)thio!-indeno 1,2-b!pyran-2(5H)-one], the IC50 was 700 nM. With `O=c1oc2c(c(O)c1SCc1ccccc1)COc1ccccc1-2` [Example 14, 4-Hydroxy-3-(phenylmethyl)thio!-2H,5H-pyrano 3,2-c! 1!bensopyran-2-one] the IC50 was 4000 nM. Molecule `O=C(O)COc1ccc2c(c1)-c1oc(=O)c(SCc3ccccc3)c(O)c1C2` [Example 29, 2,5-Dihydro-4-hydroxy-2-oxo-3-(phenylmethyl)thio!indeno 1,2-b!pyran-8 !oxy!-acetic acid] has an IC50 of 1400 nM. With `O=c1oc2c(c(O)c1SCc1ccccc1)CSc1ccccc1-2` [Example 25, 4-Hydroxy-3-(phenylmethyl)thio!-2H,5H-1!bensothiopyrano 4,3-b!pyran-2-one] the IC50 was 1300 nM. With `O=c1oc2c(c(O)c1SCc1ccccc1)Cc1ccc(OCc3ccccc3)cc1-2` [Example 11, 4-Hydroxy-8-(phenylmethoxy)-3-(phenylmethyl)thio!indeno 1,2-b!pyran-2(5H)-one] the IC50 was 2200 nM. In the case of `O=c1oc2c(c(O)c1SCCc1ccccc1)Cc1ccccc1-2` [Example 16, 4-Hydroxy-3-(2-phenylethyl)thio!indeno 1,2-b!pyran-2(5H)-one], the IC50 is reported as 3500 nM.
